Experimental data as given in patent publication US6737383B1, “Herbicidal oxadiazolidines” (priority 1999, dated 2004).

Columns and labels:
Conditions in all cases: Preemergence
soybean = assay: Test B pre/postemergence soybean; assay type: in vivo, Glycine max
Procedure, shortened: (§1)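 Test chemicals in a non-phytotoxic solvent mixture with surfactant were sprayed preemergence onto planted seeds and postemergence onto plants 2 to 18 cm tall (1- to 4-leaf stage). After twelve to sixteen days in a greenhouse, injury was visually rated against untreated controls from 0 (no effect) to 10 (complete control).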

sugar beet = assay: Test B pre/postemergence sugar beet; assay type: in vivo, Beta vulgaris
Procedure, shortened: as §1

wheat = assay: Test B pre/postemergence wheat; assay type: in vivo, Triticum aestivum
Procedure, shortened: as §1

pigweed = assay: Test B pre/postemergence pigweed; assay type: in vivo, Amaranthus retroflexus
Procedure, shortened: as §1

crabgrass = assay: Test B pre/postemergence crabgrass; assay type: in vivo, Digitaria sanguinalis
Procedure, shortened: as §1

purple nutsedge = assay: Test B pre/postemergence purple nutsedge; assay type: in vivo, Cyperus rotundus
Procedure, shortened: as §1

bedstraw = assay: Test B pre/postemergence bedstraw; assay type: in vivo, Galium aparine
Procedure, shortened: as §1

giant foxtail = assay: Test B pre/postemergence giant foxtail; assay type: in vivo, Setaria faberii
Procedure, shortened: as §1

cocklebur = assay: Test B pre/postemergence cocklebur; assay type: in vivo, Xanthium strumarium
Procedure, shortened: as §1

wild oat = assay: Test B pre/postemergence wild oat; assay type: in vivo, Avena fatua
Procedure, shortened: as §1

rape = assay: Test B pre/postemergence rape; assay type: in vivo, Brassica napus
Procedure, shortened: as §1

blackgrass = assay: Test B pre/postemergence blackgrass; assay type: in vivo, Alopecurus myosuroides
Procedure, shortened: as §1

corn = assay: Test B pre/postemergence corn; assay type: in vivo, Zea mays
Procedure, shortened: as §1

morningglory = assay: Test B pre/postemergence morningglory; assay type: in vivo, Ipomoea hederacea
Procedure, shortened: as §1

surinam grass = assay: Test B pre/postemergence surinam grass; assay type: in vivo, Brachiaria decumbens
Procedure, shortened: as §1

velvetleaf = assay: Test B pre/postemergence velvetleaf; assay type: in vivo, Abutilon theophrasti
Procedure, shortened: as §1

[1] = Rate 62 g/ha, scale of 0 to 10 where 0 is no effect and 10 is complete control
[2] = Rate 125 g/ha, scale of 0 to 10 where 0 is no effect and 10 is complete control
[3] = Rate 250 g/ha, scale 0 (no effect) to 10 (complete control)
[4] = Rate 500 g/ha, scale 0 to 10 (0 no effect, 10 complete control)

COCC(OC)n1c(=O)on(C(=O)N(c2ccc(Cl)cc2)C(C)C)c1=O (stereo not shown) [Compound 726]
1: Wild oats plant response rating (wild oat; [1]) | Morningglory plant response rating (morningglory; [3]) | Morningglory plant response rating (morningglory; [4])
2: Corn plant response rating (corn; [4])
5: Sugarbeets plant response rating (sugar beet; [3]) | Sugarbeets plant response rating (sugar beet; [4])
4: Plant response rating, Redroot pigweed (pigweed; [2]) | B. signalgrass plant response rating (surinam grass; [1])
9: Crabgrass plant response rating (crabgrass; [1]) | Plant response rating, Crabgrass (crabgrass; [2]) | Crabgrass plant response rating (crabgrass; [3]) | Giant foxtail plant response rating (giant foxtail; [1]) | Plant response rating, Giant foxtail (giant foxtail; [2]) | Wild oats plant response rating (wild oat; [4]) | Blackgrass plant response rating (blackgrass; [4]) | B. signalgrass plant response rating (surinam grass; [4])
0: Soybean plant response rating (soybean; [1]) | Plant response rating, Soybean (soybean; [2]) | Soybean plant response rating (soybean; [3]) | Soybean plant response rating (soybean; [4]) | Sugarbeets plant response rating (sugar beet; [1]) | Plant response rating, Sugarbeets (sugar beet; [2]) | Wheat plant response rating (wheat; [1]) | Plant response rating, Wheat (wheat; [2]) | Wheat plant response rating (wheat; [3]) | Wheat plant response rating (wheat; [4]) | Redroot pigweed plant response rating (pigweed; [1]) | Nutsedge plant response rating (purple nutsedge; [1]) | Plant response rating, Nutsedge (purple nutsedge; [2]) | Nutsedge plant response rating (purple nutsedge; [3]) | Nutsedge plant response rating (purple nutsedge; [4]) | Bedstraw plant response rating (bedstraw; [1]) | Plant response rating, Bedstraw (bedstraw; [2]) | Bedstraw plant response rating (bedstraw; [3]) | Bedstraw plant response rating (bedstraw; [4]) | Cocklebur plant response rating (cocklebur; [1]) | Plant response rating, Cocklebur (cocklebur; [2]) | Cocklebur plant response rating (cocklebur; [3]) | Cocklebur plant response rating (cocklebur; [4]) | Rape plant response rating (rape; [1]) | Plant response rating, Rape (rape; [2]) | Rape plant response rating (rape; [3]) | Corn plant response rating (corn; [1]) | Plant response rating, Corn (corn; [2]) | Corn plant response rating (corn; [3]) | Morningglory plant response rating (morningglory; [1]) | Plant response rating, Morningglory (morningglory; [2]) | Velvetleaf plant response rating (velvetleaf; [1]) | Plant response rating, Velvetleaf (velvetleaf; [2]) | Velvetleaf plant response rating (velvetleaf; [3]) | Velvetleaf plant response rating (velvetleaf; [4])
8: Redroot pigweed plant response rating (pigweed; [4]) | Wild oats plant response rating (wild oat; [3]) | Plant response rating, Blackgrass (blackgrass; [2]) | Blackgrass plant response rating (blackgrass; [3])
10: Crabgrass plant response rating (crabgrass; [4]) | Giant foxtail plant response rating (giant foxtail; [3]) | Giant foxtail plant response rating (giant foxtail; [4])
7: Redroot pigweed plant response rating (pigweed; [3]) | Plant response rating, Wild oats (wild oat; [2]) | Rape plant response rating (rape; [4]) | Blackgrass plant response rating (blackgrass; [1]) | Plant response rating, B. signalgrass (surinam grass; [2]) | B. signalgrass plant response rating (surinam grass; [3])
